Test results taken from patent US20180353460A1, “METHODS OF TREATING UROLOGICAL DISORDERS USING SARMs” (priority 2014, published 2018).
Where two headings read alike, the source gives them in different places.

Columns and labels:
[1] = system: ovariectomized rat model; conditions: cited from earlier work
[2] = system: levator ani muscle; assay: Hershberger assays of compounds H-1 to H-4; type: in vivo, rat; conditions: calculated in Win Non-Lin
Description: FIG. 3 depicts results of Hershberger assays of compounds of the invention as described in Example 17. AUC is area under the concentration-time curve.
Hershberger assays as described above for Formulas VIII-XIV were also performed on compounds H-1, H-2, H-3, & H-4, as reported in FIG. 3, along with AR binding data in some cases in Table 11. The reported Emax values were calculated in Win Non-Lin®.

[3] = molecular target: T1, AR (Homo sapiens, UniProt P10275); assay: biochemical; type: binding
T1 sequence (P10275 1-920): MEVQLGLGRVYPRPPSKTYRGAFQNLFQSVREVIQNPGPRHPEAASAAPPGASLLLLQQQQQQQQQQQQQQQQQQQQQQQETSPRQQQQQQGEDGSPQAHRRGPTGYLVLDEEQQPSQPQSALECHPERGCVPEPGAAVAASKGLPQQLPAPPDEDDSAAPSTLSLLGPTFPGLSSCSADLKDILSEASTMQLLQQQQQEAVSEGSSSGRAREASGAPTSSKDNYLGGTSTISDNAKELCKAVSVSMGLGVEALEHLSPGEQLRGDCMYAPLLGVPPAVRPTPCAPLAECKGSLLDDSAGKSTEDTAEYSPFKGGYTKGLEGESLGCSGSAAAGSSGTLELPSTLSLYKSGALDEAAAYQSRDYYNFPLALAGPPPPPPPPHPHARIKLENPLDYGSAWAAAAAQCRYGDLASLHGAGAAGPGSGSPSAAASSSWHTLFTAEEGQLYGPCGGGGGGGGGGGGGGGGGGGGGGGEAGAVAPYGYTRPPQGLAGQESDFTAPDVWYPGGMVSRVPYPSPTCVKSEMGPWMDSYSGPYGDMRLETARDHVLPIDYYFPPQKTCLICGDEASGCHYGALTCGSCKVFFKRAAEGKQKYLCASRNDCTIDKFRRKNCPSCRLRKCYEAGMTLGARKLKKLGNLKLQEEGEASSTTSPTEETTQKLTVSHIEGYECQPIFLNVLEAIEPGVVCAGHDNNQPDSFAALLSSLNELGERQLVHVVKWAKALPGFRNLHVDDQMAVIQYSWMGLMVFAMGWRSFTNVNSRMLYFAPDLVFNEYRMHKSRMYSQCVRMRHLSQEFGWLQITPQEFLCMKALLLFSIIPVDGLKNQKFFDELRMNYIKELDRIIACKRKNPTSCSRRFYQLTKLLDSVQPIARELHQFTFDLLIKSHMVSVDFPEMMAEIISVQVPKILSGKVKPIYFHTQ

[4] = system: women with stress urinary incontinence; conditions: cited from earlier work; for median incontinence episode frequency decreased: placebo 41%
[5] = system: prostate, seminal vesicles and levator ani muscle; assay: Androgenic and anabolic activity in castrated immature male rats, subcutaneous osmotic pumps, 14 days; type: in vivo, rat
Description: Immature male Sprague-Dawley rats, weighing 90 to 100 g, were purchased from Harlan Biosciences (Indianapolis, Ind.). The animals were maintained on a 12 hour light-dark cycle with food and water available ad libitum.
Rats were randomly distributed into treatment groups groups. One day prior to the start of drug treatment, animals were individually removed from the cage, weighed and anesthetized with an intraperitoneal dose of ketamine/xylazine (87/13 mg/kg; approximately 1 mL per kg). When appropriately anesthetized (i.e., no response to toe pinch), the animals' ears were marked for identification purposes. Animals were then placed on a sterile pad and their abdomen and scrotum washed with betadine and 70% alcohol. The testes were removed via a midline scrotal incision, with sterile suture being used to ligate supra-testicular tissue prior to surgical removal of each testis. The surgical wound site was closed with sterile stainless steel wound clips, and the site cleaned with betadine. The animals were allowed to recover on a sterile pad (until able to stand) and then returned to their cage.
Twenty-four hours later, animals were re-anesthetized with ketamine/xylazine, and an Alzet osmotic pump(s) (model 2002) was placed subcutaneouly in the scapular region. In this instance, the scapular region was shaved and cleaned (betadine and alcohol) and a small incision (1 cm) made using a sterile scalpel. The osmotic pump was inserted and the wound closed with a sterile stainless steel wound clip. Animals were allowed to recover and were returned to their cage. Osmotic pumps contained the appropriate treatment dissolved in polyethylene glycol 300 (PEG300). Osmotic pumps were filled with the appropriate solution one day prior to implantation. Animals were monitored daily for signs of acute toxicity to drug treatment (e.g., lethargy, rough coat).
After 14 days of drug treatment, rats were anesthetized with ketamine/xylazine. Animals were then sacrificed by exsanguinations under anesthesia. A blood sample was collected by venipuncture of the abdominal aorta, and submitted for complete blood cell analysis. A portion of the blood was placed in a separate tube, centrifuged at 12,000 g for 1 minute, and the plasma layer removed and frozen at −20° C. The ventral prostates, seminal vesicles, levator ani muscle, liver, kidneys, spleen, lungs, and heart were removed, cleared of extraneous tissue, weighed, and placed in vials containing 10% neutral buffered formalin. Preserved tissues were sent for histopathological analysis.
For data analysis, the weights of all organs were normalized to body weight, and analyzed for any statistical significant difference by single-factor ANOVA. The weights of prostate and seminal vesicle were used as indexes for evaluation of androgenic activity, and the levator ani muscle weight was used to evaluate the anabolic activity.

[6] = system: levator ani muscle; assay: Levator ani muscle weight in castrated rats treated subcutaneously for 14 days; type: in vivo, rat; conditions: castrated Sprague Dawley rats, subcutaneous, 3 mg/day
Source text: At sacrifice, organs were weighed and expressed as raw organ weights. Values are expressed as average±S.D. Increased size and strength of pelvic floor muscles is one mechanism by which SARMs are believed to affect UI.
At sacrifice, organs were weighed and expressed as raw organ weights. Values are expressed as average±S.D.

[7] = system: female rats with experimentally induced stress urinary incontinence; conditions: rat models of SUI; cited from earlier work
[8] = compared with the vehicle control
[9] = compared with testosterone propionate
[10] = castrated rats, 0.10 mg/day, 14 days
[11] = castrated rats, 0.50 mg/day, 14 days
[12] = castrated rats, 0.75 mg/day, 14 days
[13] = castrated rats, 1.00 mg/day, 14 days

C[C@H](Nc1ccc(C#N)c(Cl)c1Cl)C(C)(C)O [GSK2849466A]
increase of amplitude of urethral responses during sneezing (AURS) [1, 8]: 74%
increase of urethral baseline pressure (UBP) [1, 8]: 64%
rats with fluid leakage during sneezing ([1]; vehicle group 8/8): 1/8

C[C@](O)(COc1ccc(Br)cc1)C(=O)Nc1ccc([N+](=O)[O-])c(C(F)(F)F)c1 [Compound H-3]
Emax in levator ani muscle [2]: 64 ± 4 % of intact control
Ki ([3]; read-out: Ki): 13 ± 2 nM

C[C@](O)(COc1ccc(Cl)cc1)C(=O)Nc1ccc([N+](=O)[O-])c(C(F)(F)F)c1 [Compound H-2]
Emax in levator ani muscle [2]: 136 ± 9 % of intact control

CNCC[C@H](Oc1cccc2ccccc12)c1cccs1 [duloxetine]
reduction in incontinence episode frequency ([4]; Dmochowski et al., placebo 27%): 50%
median incontinence episode frequency decreased ([4]; duloxetine 20 mg/day): 54%
median incontinence episode frequency decreased ([4]; duloxetine 40 mg/day): 59%
median incontinence episode frequency decreased ([4]; duloxetine 80 mg/day): 64%

C[C@](O)(COc1ccc(I)cc1)C(=O)Nc1ccc([N+](=O)[O-])c(C(F)(F)F)c1 [Compound H-4]
Emax in levator ani muscle [2]: 95 ± 7 % of intact control

C[C@](O)(COc1ccc(Cl)cc1)C(=O)Nc1ccc(C#N)c(C(F)(F)F)c1 [Compound XI, (S)—N-(4-Cyano-3-(trifluoromethyl)phenyl)-3-(4-chlorophenoxy)-2-hydroxy-2-methylpropanamide]
dose able to maintain levator ani muscle weight of castrated animals at the level of intact animals ([5]; castrated rats, 14 days): 0.3 mg/day
weights of prostate, seminal vesicle and levator ani muscle ([5]; castrated rats, 14 days, FIG. 2): dose-dependent increases in prostate, seminal vesicle and levator ani muscle weights
potency and intrinsic activity in increasing the weight of levator ani muscle [5, 9]: greater potency and intrinsic activity
potency and intrinsic activity in increasing the weights of prostate and seminal vesicle [5, 9]: lower potency and intrinsic activity
Ki ([3]; read-out: binding affinity): 3.4 ± 0.08 nM

C[C@]12CCC(=O)C[C@@H]1CC[C@@H]1[C@@H]2CC[C@]2(C)[C@@H](O)CC[C@@H]12 [DHT, dihydrotestosterone, reference compound]
levator ani muscle weight [6]: elicits hypertrophy of the levator ani muscle

C[C@](O)(COc1ccc(F)cc1)C(=O)Nc1ccc(C#N)c(C(F)(F)F)c1 [Compound X, (S)—N-(4-Cyano-3-(trifluoromethyl)phenyl)-3-(4-fluorophenoxy)-2-hydroxy-2-methylpropanamide]
Levator Ani organ weight (Mean ± S.D.) [5, 10]: 54.9 ± 5.77 % of intact
Prostate organ weight (Mean ± S.D.) [5, 10]: 6.4 ± 0.82 % of intact
Seminal Vesicles organ weight (Mean ± S.D.) [5, 10]: 8.8 ± 1.18 % of intact
Levator Ani organ weight (Mean ± S.D.) [5, 11]: 55.0 ± 9.23 % of intact
Prostate organ weight (Mean ± S.D.) [5, 11]: 6.2 ± 0.56 % of intact
Seminal Vesicles organ weight (Mean ± S.D.) [5, 11]: 9.3 ± 1.57 % of intact
Levator Ani organ weight (Mean ± S.D.) [5, 12]: 68.9 ± 8.46 % of intact
Prostate organ weight (Mean ± S.D.) [5, 12]: 7.6 ± 0.74 % of intact
Seminal Vesicles organ weight (Mean ± S.D.) [5, 12]: 9.8 ± 3.65 % of intact
Levator Ani organ weight (Mean ± S.D.) [5, 13]: 75.2±9.51 % of intact
Prostate organ weight (Mean ± S.D.) [5, 13]: 8.7±1.39 % of intact
Seminal Vesicles organ weight (Mean ± S.D.) [5, 13]: 10.7±0.91 % of intact
Ki ([3]; read-out: binding affinity): 3.3 ± 0.08 nM
levator ani muscle weight [6]: elicits hypertrophy of the levator ani muscle

C[C@]12CC[C@H]3[C@@H](CCC4=CC(=O)CC[C@@]43C)[C@@H]1CC[C@@H]2O [Testosterone, testosterone]
leak point pressures and size of myofibers [7]: improve leak point pressures and significantly increase the size of myofibers

C[C@](O)(COc1ccc(F)cc1)C(=O)Nc1ccc([N+](=O)[O-])c(C(F)(F)F)c1 [Compound H-1]
Emax in levator ani muscle [2]: 75 ± 4 % of intact control
